Reference: patent US20220218659A1, “PI3K/LYN-ACLY Signaling Inhibition” (Institute For Cancer Research d/b/a The Research Institute …, priority 2019, published 2022)
No end group written: not given here. *: point of attachment. Biotin = O=C1N[C@H]2[C@H](CS[C@H]2CCCCC(=O)*)N1

What was measured:
[1] = test system: Histone H3 acetylation (H3K9ac); assay: Histone H3 (H3K9) acetylation by Western blot in HL-60 cells; type: cell-based; conditions: 16 hours, 10% FBS in RPMI
Method: Therefore, to evaluate the link between PI3K/Lyn and ACLY-mediated pathways in AML, HL-60 AML cell line were also used, in addition to primary patient-derived AML cells. HL-60 cell line was from American Type Culture Collection (ATCC). It was decided to use this particular HL-60 cell line for consistency herein since HL-60 cells express the active NRAS oncoprotein, similarly like the patient-derived AML cells (FIG. 7 and FIG. 8). HL-60 AML cell line was grown in RPMI 1640 medium supplemented with 10% fetal bovine serum, 2 mM 1-glutamine and 1% penicillin-streptomycin and maintained at 37° C. and 5% CO2. Cells were treated with the Lyn inhibitor (100 nM-1000 nM Bafetinib) or PI3K inhibitors (500 nM-2.5 μM LY294002 or 100 nM-2.0 μM BKM120) or vehicle (0.1% DMSO) in the presence of 10% FBS in RPMI media for 16 hours for Acetyl CoA measurement, phospholipid and histone acetylation analysis.
HL-60 cell line was seeded at a concentration of 1×10^6/ml in 10 ml media onto 40 ml culture-flask and cultured for 16 hours in the presence of indicated concentration of LYN or PI3K inhibitors or DMSO (0.1% dimethyl sulfoxide). Cells were harvested and lysed in 1 ml of ice-cold Pierce IP lysis buffer (Pierce Inc.) in the presence of Proteinase and phosphatase inhibitor cocktail (Thermofisher) and sonicated for 20 seconds. Lysates were cleared by centrifugation at 12000 rpm in cold conditions on bench top centrifuge, and the supernatant was used for protein determination by BCA assay kit (Pierce Inc). Equivalent amounts of protein lysate were mixed with sodium dodecylsulfate (2×SDS) and boiled for 8 minutes. Samples were resolved by 4-12% gradient sodium dodecylsulfate-polyacrylamide gel electrophoresis (NOVEX; Invitrogen) and blotted onto nitrocellulose filters. Membranes were blocked for 1 hour in 0.1% Tween-20 and 5% bovine serum albumin. Primary antibodies for H3K9ac, histone H3, Lyn, ACLY and GAPDH were added to 5% BSA at concentrations provided by the vendor's instructions and incubated with membranes overnight at 4° C. before removing by washing. […]

HL-60 AML cells = assay: MTT assay, growth of HL-60 AML cells; type: cell-based; conditions: within 72 hours
Method: HL-60 cells were treated with various concentrations of Bafetinib (Lyn kinase), BKM120 (PI3K) and BMS 303141 (ACLY) inhibitors in the presence of 10% RPMI media for 72 hours. The growth-inhibitory effect was examined using a […] assay (MTT; Sigma-Aldrich) as per the instructions of the manufactured kit. The experiment was performed in triplicate.

Acetyl-CoA = Acetyl-CoA measurement in HL-60 cells; type: cell-based; conditions: 16 hours
Method: HL-60 cells were cultured as above, treated with Bafetinib (500 nM), PI3K inhibitors (1 μM) for 16 hours. After treatment, cells were washed with medium and harvested for acetyl-CoA extraction from 5×10^6 cells per condition in triplicate, acetyl-CoA levels were measured using Pico-Probe Acetyl-CoA Fluorometric Assay kit (BioVision, Milpitas, Calif.) following the manufacturer's instructions.

PI/PIP/PIP2 = assay: Lipidomic analysis of PI, PIP and PIP2 in HL-60 cells; type: cell-based; conditions: 16 hours, 10% FBS in RPMI
Method: Phosphoinositides from HL60 cells treated with PI3K and Lyn inhibitors were compared with those from control cells (0.1% DMSO in culture medium). HL60 cells were treated with PI3K inhibitors LY294002, BKM120 or the Lyn inhibitor Bafetinib for 16 hours followed by TCA precipitation and freezing at −80° C. TCA precipitates were spiked with 20 ng of two internal standards (PIP 37:4; PIP2 37:4) and subjected to lipid extraction as described below and analyzed via LC/MS/MS. TMS-diazomethane derivatized phospholipids including phosphatidyl inositol (PI), phosphatidylinositol phosphate (PIP) and phosphatidylinositol bisphosphate (PIP2) values were measured using UPLC/MS/MS MRM Mass Spectrometry. […] Phosphatidylinositol trisphosphate (PIP3) was also measured but levels were too low in these cells to be analyzed. The endogenous PIP3 is several orders of magnitude less abundant than PIP2 in cells. It is well established that the basal PIP3 level is often undetectable in cells due to its low quantity and short halflife. […]
UPLC/MS: Dried, methylated cell extracts were suspended in 100 μl 100% methanol (LC-MS Optima grade, Fisher) prior to chromatographic separation and MS/MS. […] The effluent was monitored by a Waters XEVO TQ-S MS/MS in multiple reaction monitoring (MRM) in positive ion mode. […]

ACLY binding to PIP2 = assay: Phospho-ACLY bound to PIP2 (PIP2 immunoprecipitation and western blotting) in transfected HEK293T cells; type: cell-based, human; conditions: ACLY-HA with active SRC kinase, 2 μM, 15 hours
[2] = ACLY peptide binding on PIP specificity plates; conditions: PIP specificity plate, 20 pmols phosphoinositide per well, peptide 1.0 μg/ml
Method: ACLY peptides: Based on PIP2 binding motif analysis on ACLY using full length protein sequence, two PIP2 binding domains were predicted. The ACLY peptide-1 in the ATP-grasp domain sequence (peptide-1: […]; SEQ ID NO:15) and the ACLY peptide-2, in the CoA-binding domain sequence (peptide-2: […]; SEQ ID NO:5). N-terminally biotinylated peptides were synthesized (Genscript, Inc). ACLY-PIP specificity binding assay was performed using the N-terminally biotinylated peptides at 1.0 μg/ml concentration in 1% goat serum in Tris buffer saline (TB S) and the Cova PIP Specificity plate H-6300 (Echelon Biosciences) according to manufactures instructions. In brief, ACLY peptide-1 and peptide-2 at final concentration of 1.0 μg/ml in 100 μl volume were incubated for overnight at 4° C. After three washes with TBST buffer, the wells were incubated with 100 μl of HRP-conjugated Biotin antibody, followed by three washes. The bound peptides were detected with Super-Signal ELISA-Pico chemiluminescent substrate kit from ThermoFisher and reading the absorbance at 450 nm for 3-30 minutes.

Cc1ccc(NC(=O)c2ccc(CN3CC[C@H](N(C)C)C3)c(C(F)(F)F)c2)cc1Nc1nccc(-c2cncnc2)n1 [Bafetinib]
Histone H3 acetylation blocked (densitometric analysis) [1]: 90%

O=c1cc(N2CCOCC2)oc2c(-c3ccccc3)cccc12 [LY294002]
Histone H3 acetylation blocked (densitometric analysis) [1]: 60%

COc1ccc(-c2ccccc2)cc1NS(=O)(=O)c1cc(Cl)cc(Cl)c1O [BMS303141]
IC50 (HL-60 AML cells): 10 to 20 µM

Nc1cc(C(F)(F)F)c(-c2cc(N3CCOCC3)nc(N3CCOCC3)n2)cn1 [BKM120, Buparlisib]
Histone H3 acetylation blocked (densitometric analysis) [1]: 97% | synthesis of Acetyl-CoA (Acetyl-CoA): significantly prevented | levels of total PI/PIP/PIP2 compared to DMSO control (PI/PIP/PIP2): overall decrease | phospho-ACLY bound to PIP2 versus DMSO (ACLY binding to PIP2): significant difference

ALTRKLIKKADQKGV (Biotin-ALTRKLIKKADQKGV) [ACLY peptide-2]
binding to PI(4,5)P2 [2]: binds to PI(4,5)P2
